In the test the test system is P388 leukemia ip, CD2F1 mice, survival T/C. The test is described as follows: NCI In Vivo Anticancer Drug Screen. Data for tumor model P388 Leukemia (intraperitoneal) in CD2F1 (CDF1) mice. The note with it: endpoint: median survival time, higher = longer survival. An outline of the steps:
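Mice carrying the transplanted tumor received test compound or vehicle. Survival was recorded in each group, and the value is the treated-group measurement divided by that of the vehicle-treated control group.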

Where [1] appears, read: dose: 50.0 mg/kg/injection, schedule: Q01DX009 (ip), vehicle: saline.
[2] abbreviates: dose: 100.0 mg/kg/injection, schedule: Q01DX009 (ip), vehicle: saline with Tween-80.
[3] abbreviates: dose: 200.0 mg/kg/injection, schedule: Q01DX009 (ip), vehicle: saline with Tween-80.
The mark [4] stands for this setting: dose: 400.0 mg/kg/injection, schedule: Q01DX009 (ip), vehicle: saline with Tween-80.
[5] abbreviates: dose: 25.0 mg/kg/injection, schedule: Q01DX009 (ip), vehicle: saline with Tween-80.
Setting [6] is: dose: 50.0 mg/kg/injection, schedule: Q01DX009 (ip), vehicle: saline with Tween-80.
Where [7] appears, read: dose: 6.25 mg/kg/injection, schedule: Q01DX009 (ip), vehicle: saline with Tween-80.
Where [8] appears, read: dose: 12.5 mg/kg/injection, schedule: Q01DX009 (ip), vehicle: saline with Tween-80.

Where “and” joins values, the source holds several entries; their conditions need not be identical. Equal entries are not always repeated. Toxic doses and inconclusive results are not listed.

Experimental findings from PubChem BioAssay AID330 (DTP/NCI, 2004) are described below.

Turning to `C=C(C)c1cc2cc(C(C)=O)ccc2o1`, the T/C is 108 % of control (dose: 2.25 mg/kg/injection, schedule: Q01DX009 (ip), vehicle: Klucel (hydroxypropylcellulose) (HPC)); 115 % of control (dose: 4.5 mg/kg/injection, schedule: Q01DX009 (ip), vehicle: Klucel (hydroxypropylcellulose) (HPC)); 97 % of control (dose: 9.0 mg/kg/injection, schedule: Q01DX009 (ip), vehicle: Klucel (hydroxypropylcellulose) (HPC)); 115 % of control (dose: 18.0 mg/kg/injection, schedule: Q01DX009 (ip), vehicle: Klucel (hydroxypropylcellulose) (HPC)); 113 % of control (dose: 36.0 mg/kg/injection, schedule: Q01DX009 (ip), vehicle: Klucel (hydroxypropylcellulose) (HPC)).
As to `CCOC(=O)c1ccc(NN=NCCF)cc1`, the T/C is 160 % of control (dose: 6.25 mg/kg/injection, schedule: Q01DX005 (ip), vehicle: distilled water + Tween-80); 252 % of control (dose: 12.5 mg/kg/injection, schedule: Q01DX005 (ip), vehicle: distilled water + Tween-80); 256 % of control and 275 % of control (dose: 25.0 mg/kg/injection, schedule: Q01DX005 (ip), vehicle: distilled water + Tween-80).
On to `CCN(CC)CCCNc1cccc2c(C)cc(OC)nc12`, for which the T/C (dose: 12.5 mg/kg/injection, schedule: Q01DX009 (ip), vehicle: saline) was 92 % of control; the T/C (dose: 25.0 mg/kg/injection, schedule: Q01DX009 (ip), vehicle: saline) was 90 % of control; the T/C under setting [1] was 86 % of control.
Turning to `CC(=O)Oc1ccc(C(O)CN(C)OC(C)=O)cc1OC(C)=O` (configuration not stated), the T/C is 100 % of control (dose: 12.5 mg/kg/injection, schedule: Q01DX005 (ip), vehicle: Klucel + Tween-80); 101 % of control (dose: 25.0 mg/kg/injection, schedule: Q01DX005 (ip), vehicle: Klucel + Tween-80); 101 % of control and 92 % of control (dose: 50.0 mg/kg/injection, schedule: Q01DX005 (ip), vehicle: Klucel + Tween-80).
In the case of `CC(=O)Nc1ccc(OCC(O)CNC(C)C)c(C(C)=O)c1` (configuration not stated), the T/C by setting is: under setting [1], 101 % of control; (dose: 100.0 mg/kg/injection, schedule: Q01DX009 (ip), vehicle: saline) 92 % of control; (dose: 200.0 mg/kg/injection, schedule: Q01DX009 (ip), vehicle: saline) 97 % of control.
As to `CC[C@H](CC[C@@H](C)C1CC[C@H]2[C@@H]3CC=C4C[C@@H](OP(=O)(N5CC5)N5CC5)CC[C@]4(C)[C@H]3CC[C@]12C)C(C)C` (some centres not stated), the T/C is 152 % of control under setting [2]; 163 % of control and 171 % of control under setting [3]; 98 % of control under setting [4].
For the molecule `CCCN(CCC)CCCC#N`, the T/C is 90 % of control under setting [5], 90 % of control under setting [6] and 100 % of control under setting [2].
As to `OC1CNCc2cc3c(cc21)OCO3` (configuration not stated), the T/C is, setting by setting: (dose: 60.0 mg/kg/injection, schedule: Q01DX005 (ip), vehicle: saline) 110 % of control; (dose: 120.0 mg/kg/injection, schedule: Q01DX005 (ip), vehicle: saline) 107 % of control; (dose: 240.0 mg/kg/injection, schedule: Q01DX005 (ip), vehicle: saline) 100 % of control.
On to `CCN(CC)S(=O)(=O)c1ccc(-c2cc(Cl)c3cc(S(=O)(=O)F)ccc3n2)cc1`, for which the T/C (dose: 100.0 mg/kg/injection, schedule: Q04DX003 (ip), vehicle: saline with Tween-80) was 100 % of control; the T/C (dose: 200.0 mg/kg/injection, schedule: Q04DX003 (ip), vehicle: saline with Tween-80) was 100 % of control; the T/C (dose: 400.0 mg/kg/injection, schedule: Q04DX003 (ip), vehicle: saline with Tween-80) was 95 % of control.
In the case of `COc1cc2c(c(OC)c1OC)-c1ccc(=O)c(OC)cc1[C@@H](N(C)C)CC2`, the T/C (dose: 2.5 mg/kg/injection, schedule: Q01DX009 (ip), vehicle: Klucel (hydroxypropylcellulose) (HPC)) is 100 % of control; the T/C (dose: 5.0 mg/kg/injection, schedule: Q01DX009 (ip), vehicle: Klucel (hydroxypropylcellulose) (HPC)) was 106 % of control; the T/C (dose: 10.0 mg/kg/injection, schedule: Q01DX009 (ip), vehicle: Klucel (hydroxypropylcellulose) (HPC)) was 107 % of control; the T/C (dose: 20.0 mg/kg/injection, schedule: Q01DX009 (ip), vehicle: Klucel (hydroxypropylcellulose) (HPC)) was 110 % of control; the T/C (dose: 40.0 mg/kg/injection, schedule: Q01DX009 (ip), vehicle: Klucel (hydroxypropylcellulose) (HPC)) was 110 % of control.
As to `Nc1ccc2[nH]c3cnccc3c2c1`, the T/C (dose: 12.5 mg/kg/injection, schedule: Q01DX009 (ip), vehicle: other) is 103 % of control; the T/C (dose: 25.0 mg/kg/injection, schedule: Q01DX009 (ip), vehicle: other) is 108 % of control; the T/C (dose: 50.0 mg/kg/injection, schedule: Q01DX009 (ip), vehicle: other) was 103 % of control; the T/C (dose: 100.0 mg/kg/injection, schedule: Q01DX009 (ip), vehicle: other) was 103 % of control.
As for `[NH-]C(CO)C(=O)O.[NH-]C(CO)C(=O)O.[Pt+2]` (configuration not stated), the T/C by setting is: (dose: 3.13 mg/kg/injection, schedule: Q01DX009 (ip), vehicle: water) 91 % of control; (dose: 6.25 mg/kg/injection, schedule: Q01DX009 (ip), vehicle: water) 91 % of control; (dose: 12.5 mg/kg/injection, schedule: Q01DX009 (ip), vehicle: water) 97 % of control; (dose: 25.0 mg/kg/injection, schedule: Q01DX009 (ip), vehicle: water) 106 % of control; (dose: 50.0 mg/kg/injection, schedule: Q01DX009 (ip), vehicle: water) 115 % of control; (dose: 100.0 mg/kg/injection, schedule: Q01DX009 (ip), vehicle: water) 115 % of control.
In the case of `CCSc1nc2c(N)nc(N)nc2[nH]c1=O`, the T/C was 99 % of control (dose: 100.0 mg/kg/injection, schedule: Q04DX003 (ip), vehicle: Klucel (hydroxypropylcellulose) (HPC)) and 86 % of control (dose: 200.0 mg/kg/injection, schedule: Q04DX003 (ip), vehicle: Klucel (hydroxypropylcellulose) (HPC)).
As for `NC(=O)c1ccc2c(=O)c(C(=O)O)c[nH]c2c1`, the T/C under setting [7] is 92 % of control, the T/C under setting [8] is 95 % of control and the T/C under setting [5] was 94 % of control.
For `COc1cc(/C=N/OC(=O)Nc2ccccc2)cc(OC)c1OC`, the T/C by setting is: under setting [7], 96 % of control; under setting [8], 91 % of control; under setting [5], 91 % of control.
For the molecule `CC(=NCc1ccccc1)c1ccccc1O`, the T/C was 99 % of control (dose: 50.0 mg/kg/injection, schedule: Q01DX009 (ip), vehicle: Klucel (hydroxypropylcellulose) (HPC)); 106 % of control under setting [6]; 93 % of control (dose: 100.0 mg/kg/injection, schedule: Q01DX009 (ip), vehicle: Klucel (hydroxypropylcellulose) (HPC)); 116 % of control under setting [2]; 92 % of control (dose: 200.0 mg/kg/injection, schedule: Q01DX009 (ip), vehicle: Klucel (hydroxypropylcellulose) (HPC)); 98 % of control under setting [3]. Under setting [4], the T/C was 109 % of control.
As for `COc1ccc(C(c2cc(C(C)(C)C)cc(C(C)(C)C)c2O)N(C)C)cc1` (configuration not stated), the T/C runs as follows: (dose: 50.0 mg/kg/injection, schedule: Q01DX005 (ip), vehicle: distilled water + alcohol) 103 % of control; (dose: 100.0 mg/kg/injection, schedule: Q01DX005 (ip), vehicle: distilled water + alcohol) 103 % of control; (dose: 200.0 mg/kg/injection, schedule: Q01DX005 (ip), vehicle: distilled water + alcohol) 105 % of control.
For the molecule `NC(N)=N/N=C1\C(=O)N(c2cccc([N+](=O)[O-])c2)C(=O)C1C(=O)Nc1cccc([N+](=O)[O-])c1` (configuration not stated), the T/C reads like this: (dose: 100.0 mg/kg/injection, schedule: Q01DX001 (ip), vehicle: saline with Tween-80) 102 % of control; (dose: 200.0 mg/kg/injection, schedule: Q01DX001 (ip), vehicle: saline with Tween-80) 100 % of control.
Turning to `COC(=O)n1oc2ccccc2c1=O`, the T/C (dose: 100.0 mg/kg/injection, schedule: Q04DX002 (ip), vehicle: Klucel (hydroxypropylcellulose) (HPC)) is 99 % of control; the T/C (dose: 200.0 mg/kg/injection, schedule: Q04DX002 (ip), vehicle: Klucel (hydroxypropylcellulose) (HPC)) is 101 % of control; the T/C (dose: 400.0 mg/kg/injection, schedule: Q04DX002 (ip), vehicle: Klucel (hydroxypropylcellulose) (HPC)) is 101 % of control.
